Assay [1] concerns the target T1, rat adrenergic α1A receptor (Rattus norvegicus, UniProt P43140).
T1 construct: rat adrenergic α1A receptor obtained from Wistar Rat submaxillary glands; from tissue; host or cells: Wistar rat submaxillary glands
T1 sequence (P43140 1-466): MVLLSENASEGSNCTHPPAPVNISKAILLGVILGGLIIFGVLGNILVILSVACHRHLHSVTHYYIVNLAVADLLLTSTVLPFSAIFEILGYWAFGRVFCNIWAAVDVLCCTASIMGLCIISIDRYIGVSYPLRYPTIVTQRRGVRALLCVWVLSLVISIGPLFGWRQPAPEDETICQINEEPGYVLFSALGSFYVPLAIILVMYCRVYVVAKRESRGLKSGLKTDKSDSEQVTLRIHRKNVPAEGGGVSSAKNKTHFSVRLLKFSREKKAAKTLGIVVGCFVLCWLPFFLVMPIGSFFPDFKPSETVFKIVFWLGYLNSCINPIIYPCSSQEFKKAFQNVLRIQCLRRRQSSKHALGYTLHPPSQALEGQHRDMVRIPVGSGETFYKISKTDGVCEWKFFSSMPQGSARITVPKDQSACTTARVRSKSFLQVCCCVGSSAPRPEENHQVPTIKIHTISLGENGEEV
Description: Adrenergic α1A radioligand binding ([3H]Prazosin). The note with it: read-out: Adrenergic (0.1 μM) a1A, percent inhibition of specific binding; compound at 0.1 μM; 0.25 nM [3H]Prazosin. The essentials: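 Wistar rat submaxillary gland receptor in 50 mM Tris-HCl pH 7.4 with 0.5 mM EDTA, incubated with compound and 0.25 nM [3H]Prazosin for 60 min at 25 °C.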

Assay [2] deals with T2, human recombinant adrenergic α2C receptor (Homo sapiens, UniProt P18825).
T2 construct: expressed in transfected cells; host or cells: insect Sf9 cells
T2 sequence (P18825 1-462): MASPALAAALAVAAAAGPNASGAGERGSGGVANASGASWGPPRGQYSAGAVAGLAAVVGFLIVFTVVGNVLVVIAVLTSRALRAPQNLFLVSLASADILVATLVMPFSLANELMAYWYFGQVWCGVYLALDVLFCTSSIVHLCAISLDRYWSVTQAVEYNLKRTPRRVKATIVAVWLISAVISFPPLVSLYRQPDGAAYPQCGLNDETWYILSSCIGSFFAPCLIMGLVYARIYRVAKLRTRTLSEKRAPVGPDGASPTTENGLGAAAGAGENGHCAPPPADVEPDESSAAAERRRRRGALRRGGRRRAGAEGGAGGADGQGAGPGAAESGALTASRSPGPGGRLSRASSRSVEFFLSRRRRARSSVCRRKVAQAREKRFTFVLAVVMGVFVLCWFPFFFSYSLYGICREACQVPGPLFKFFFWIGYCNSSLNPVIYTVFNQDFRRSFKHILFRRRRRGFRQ
Description: Adrenergic α2C radioligand binding ([3H]MK-912). As to conditions: read-out: Adrenergic (0.1 μM) a2C, percent inhibition of specific binding; compound at 0.1 μM; 1 nM [3H]MK-912. The essentials:
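Membranes from Sf9 cells expressing the human receptor, in 50 mM Tris-HCl pH 7.4 with 12.5 mM MgCl2 and 2 mM EDTA, incubated with compound and 1 nM [3H]MK-912 for 60 min at 25 °C. Non-specific binding defined with 10 μM WB-4101. Filter-bound radioactivity counted; percent inhibition of specific binding reported.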

Assay [3] addresses T3, human recombinant dopamine D2L receptor (Homo sapiens, UniProt P14416).
T3 construct: expressed in transfected cells; host or cells: CHO
The assay is described as follows: Dopamine D2L radioligand binding ([3H]Spiperone). As to conditions: read-out: Dopamine D2L (1 μM), percent inhibition of specific binding; compound at 1 μM; 0.16 nM [3H]Spiperone. The procedure: Non-specific binding was estimated in the presence of 10 μM Haloperidol. Receptor proteins were filtered and washed, the filters were then counted to determine [^3H]Spiperone specifically bound.

Assay [4] deals with T4, human recombinant serotonin (5-Hydroxytryptamine) 5-HT2A receptor (Homo sapiens, UniProt P28223).
T4 construct: expressed in transfected cells; host or cells: CHO-K1
Description: Serotonin 5-HT2A radioligand binding ([3H]Ketanserin). The note with it: compound at 0.1 μM; read-out: Inhibition of ligand binding, Serotonin 5-HT2A (percent inhibition of specific binding). The procedure:
Compounds of the invention were incubated with 0.5 nM [^3H]Ketanserin for 60 min at 25° C. Non-specific binding was estimated in the presence of 1 μM Mianserin. Receptor proteins were filtered and washed, the filters were then counted to determine [^3H]Ketanserin specifically bound.

Assay [5] deals with T5, human recombinant serotonin (5-Hydroxytryptamine) 5-HT5A receptor (Homo sapiens, UniProt P47898).
T5 construct: expressed in transfected cells; host or cells: CHO-K1
The assay is described as follows: Serotonin 5-HT5A radioligand binding ([3H]LSD). As to conditions: compound at 0.1 μM; read-out: Inhibition of ligand binding, Serotonin 5-HT5A (percent inhibition of specific binding). The procedure: Compounds of the invention were incubated with 1.7 nM [^3H]Lysergic acid diethylamide (LSD) for 60 min at 37° C. […] Receptor proteins were filtered and washed, the filters were counted to determine [^3H]LSD specifically bound.

In assay [6] the target is T6, human recombinant serotonin (5-Hydroxytryptamine) 5-HT6 receptor (Homo sapiens, UniProt P50406).
T6 construct: expressed in transfected cells; host or cells: HeLa
The assay is described as follows: Serotonin 5-HT6 radioligand binding ([3H]LSD). As to conditions: compound at 0.1 μM; read-out: Inhibition of ligand binding, Serotonin 5-HT6 (percent inhibition of specific binding). The text has this: Receptor proteins were filtered and washed, the filters were then counted to determine [3H]LSD specifically bound.

Assay [7] concerns the target T7, human recombinant serotonin (5-Hydroxytryptamine) 5-HT7 receptor (Homo sapiens, UniProt P34969).
T7 construct: expressed in transfected cells; host or cells: CHO
The assay is described as follows: Serotonin 5-HT7 radioligand binding ([3H]LSD). The note with it: compound at 0.1 μM; read-out: Inhibition of ligand binding, Serotonin 5-HT7 (percent inhibition of specific binding). The procedure: Lysergic acid diethylamide (LSD) for 120 min. at 25° C. […] Receptor proteins were filtered and washed, the filters were then counted to determine [^3H]LSD specifically bound.

T5 sequence (P47898 whole entry): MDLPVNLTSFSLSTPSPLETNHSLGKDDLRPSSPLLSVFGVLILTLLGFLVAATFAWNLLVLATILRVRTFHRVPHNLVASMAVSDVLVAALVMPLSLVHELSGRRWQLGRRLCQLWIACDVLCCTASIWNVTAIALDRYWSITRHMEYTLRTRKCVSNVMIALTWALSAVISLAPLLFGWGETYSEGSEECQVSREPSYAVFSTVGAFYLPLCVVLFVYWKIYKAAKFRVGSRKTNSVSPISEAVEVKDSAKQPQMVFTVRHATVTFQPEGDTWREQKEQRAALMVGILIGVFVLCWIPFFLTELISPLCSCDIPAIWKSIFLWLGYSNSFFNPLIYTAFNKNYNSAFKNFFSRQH
T6 sequence (P50406 whole entry): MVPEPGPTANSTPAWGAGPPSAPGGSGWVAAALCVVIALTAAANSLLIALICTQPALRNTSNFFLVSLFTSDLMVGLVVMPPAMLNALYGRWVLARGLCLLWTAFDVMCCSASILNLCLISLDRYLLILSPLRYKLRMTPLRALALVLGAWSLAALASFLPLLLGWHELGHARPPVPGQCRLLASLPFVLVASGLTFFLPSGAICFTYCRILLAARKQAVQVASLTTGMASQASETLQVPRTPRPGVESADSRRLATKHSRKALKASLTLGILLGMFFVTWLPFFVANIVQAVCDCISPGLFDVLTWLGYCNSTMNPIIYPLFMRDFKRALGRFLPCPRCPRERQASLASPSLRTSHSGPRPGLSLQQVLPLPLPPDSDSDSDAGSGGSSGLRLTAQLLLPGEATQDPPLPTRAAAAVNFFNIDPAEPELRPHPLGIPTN
T3 sequence (P14416 whole entry): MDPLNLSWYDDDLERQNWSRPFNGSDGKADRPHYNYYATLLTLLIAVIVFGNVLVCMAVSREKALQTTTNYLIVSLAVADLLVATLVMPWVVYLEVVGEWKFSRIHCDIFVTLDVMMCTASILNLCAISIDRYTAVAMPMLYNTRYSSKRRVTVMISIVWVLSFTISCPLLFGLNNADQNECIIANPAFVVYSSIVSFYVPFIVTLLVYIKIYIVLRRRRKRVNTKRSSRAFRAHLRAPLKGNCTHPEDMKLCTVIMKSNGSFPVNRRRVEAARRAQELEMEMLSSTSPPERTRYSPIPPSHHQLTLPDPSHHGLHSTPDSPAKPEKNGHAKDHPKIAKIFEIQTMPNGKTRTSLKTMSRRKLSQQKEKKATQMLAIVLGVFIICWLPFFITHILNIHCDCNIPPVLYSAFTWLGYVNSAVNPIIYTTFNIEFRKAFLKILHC
T7 sequence (P34969 whole entry): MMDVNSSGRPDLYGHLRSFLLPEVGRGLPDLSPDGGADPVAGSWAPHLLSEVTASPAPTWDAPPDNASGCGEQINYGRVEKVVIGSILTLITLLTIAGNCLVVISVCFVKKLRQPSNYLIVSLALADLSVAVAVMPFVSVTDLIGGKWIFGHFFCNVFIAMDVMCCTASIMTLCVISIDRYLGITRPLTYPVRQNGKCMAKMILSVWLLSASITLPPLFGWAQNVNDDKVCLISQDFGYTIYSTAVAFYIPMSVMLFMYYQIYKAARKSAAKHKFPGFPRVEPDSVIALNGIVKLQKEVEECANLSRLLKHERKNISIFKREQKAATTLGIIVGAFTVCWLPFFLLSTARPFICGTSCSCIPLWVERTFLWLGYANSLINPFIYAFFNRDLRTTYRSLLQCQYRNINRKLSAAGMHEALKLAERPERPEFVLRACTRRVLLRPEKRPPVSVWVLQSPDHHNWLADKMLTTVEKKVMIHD
T4 sequence (P28223 whole entry): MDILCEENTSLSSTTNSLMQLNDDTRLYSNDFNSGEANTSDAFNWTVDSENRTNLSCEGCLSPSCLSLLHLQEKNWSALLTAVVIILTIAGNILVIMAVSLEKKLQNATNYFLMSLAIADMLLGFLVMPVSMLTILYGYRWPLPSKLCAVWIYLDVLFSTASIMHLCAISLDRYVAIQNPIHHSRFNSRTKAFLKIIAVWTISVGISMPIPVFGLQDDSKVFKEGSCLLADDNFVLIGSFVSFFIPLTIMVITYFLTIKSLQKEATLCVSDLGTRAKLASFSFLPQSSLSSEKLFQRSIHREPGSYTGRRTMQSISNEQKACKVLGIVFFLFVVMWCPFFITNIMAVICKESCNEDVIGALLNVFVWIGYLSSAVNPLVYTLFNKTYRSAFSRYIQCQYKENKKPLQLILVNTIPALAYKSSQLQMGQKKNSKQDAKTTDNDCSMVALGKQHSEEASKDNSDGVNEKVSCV

With `Cc1ccc2c(c1)c1c(n2-c2cccc(-c3ccc4[nH]cnc4c3)c2)CCN(C)C1` [Compound 54, 5-(3-(1H-benzo[d]imidazol-5-yl)phenyl)-2,8-dimethyl-2,3,4,5-tetrahydro-1H-pyrido[4,3-b]indole], the inhibition at 0.1 µM in assay [1] is -7%; in assay [2], 12%; in assay [4], 92%; in assay [5], 33%; in assay [6], 25%; in assay [7] it was 26%. Moreover, the inhibition at 1 µM in assay [3] was 22%.
Turning to `CC(=O)Nc1ccc(-c2cscc2-n2c3c(c4cc(C)ccc42)CN(C)CC3)cn1` [Compound 56], the inhibition at 0.1 µM was 49% in assay [1]; 2% in assay [2]; 31% in assay [4]; 51% in assay [5]; 16% in assay [6]; 70% in assay [7]. In assay [3], the inhibition at 1 µM is 10%.
On to `Cc1cc(C)c2c(c1)c1c(n2-c2cccc(-c3ccncc3)c2)CCN(C)C1` [Compound 57, 2,6,8-trimethyl-5-(3-(pyridin-4-yl)phenyl)-2,3,4,5-tetrahydro-1H-pyrido[4,3-b]indole], for which the inhibition at 0.1 µM in assay [1] was found to be 3%; in assay [2], 3%; in assay [4], 70%; in assay [5] it was 26%; in assay [6] it was 15%; in assay [7], 39%. In addition, in assay [3], the inhibition at 1 µM came out at 31%.
With `Cc1ccc2c(c1)c1c(n2-c2cccc3ccncc23)CCN(C)C1` [Compound 58, 5-(isoquinolin-8-yl)-2,8-dimethyl-2,3,4,5-tetrahydro-1H-pyrido[4,3-b]indole], the inhibition at 0.1 µM in assay [1] is 3%; in assay [2] it was -1%; in assay [4], 70%; in assay [5] it was 33%; in assay [6] it was 21%; in assay [7] it was 69%. The inhibition at 1 µM in assay [3] was found to be 11%.
Consider `Cc1ccc2c(c1)c1c(n2-c2ccccc2-c2ccc(C)nc2)CCN(C)C1` [Compound 59, 2,8-dimethyl-5-(2-(6-methylpyridin-3-yl)phenyl)-2,3,4,5-tetrahydro-1H-pyrido[4,3-b]indole], for which the inhibition at 0.1 µM in assay [1] was 42%; in assay [2] it was 25%; in assay [4], 47%; in assay [5] it was 31%; in assay [6], 17%; in assay [7], 48%. Besides, the inhibition at 1 µM in assay [3] was 13%.
For `Cc1ccc2c(c1)c1c(n2-c2cccc(-c3ccc(C)nc3)c2)CCN(C)C1` [Compound 60, 2,8-dimethyl-5-(3-(6-methylpyridin-3-yl)phenyl)-2,3,4,5-tetrahydro-1H-pyrido[4,3-b]indole], the inhibition at 0.1 µM was -2% in assay [1]; 21% in assay [2]; 102% in assay [4]; 62% in assay [5]; 3% in assay [6]; 41% in assay [7]. Also, in assay [3], the inhibition at 1 µM turned out to be 24%.
For the molecule `Cc1ccc2c(c1)c1c(n2-c2cccc(-c3ccc(F)cc3)c2)CCN(C)C1` [Compound 61, 5-(4′-fluorobiphenyl-3-yl)-2,8-dimethyl-2,3,4,5-tetrahydro-1H-pyrido[4,3-b]indole], the inhibition at 0.1 µM is -5% in assay [1]; 8% in assay [2]; 102% in assay [4]; 24% in assay [5]; 18% in assay [6]; 48% in assay [7]. The inhibition at 1 µM in assay [3] was 36%.
As for `Cc1ccc2c(c1)c1c(n2-c2cscc2-c2c(C)noc2C)CCN(C)C1` [Compound 62], the inhibition at 0.1 µM in assay [1] was found to be 9%; in assay [2] it was 33%; in assay [4], 68%; in assay [5], 54%; in assay [6] it was 28%; in assay [7], 48%. For the same molecule, the inhibition at 1 µM in assay [3] was determined as 16%.
On to `Cc1csc(-c2cccc(-n3c4c(c5cc(C)ccc53)CN(C)CC4)c2)c1` [Compound No. 63, 2,8-dimethyl-5-(3-(4-methylthiophen-2-yl)phenyl)-2,3,4,5-tetrahydro-1H-pyrido[4,3-b]indole], for which the inhibition at 0.1 µM in assay [1] was -8%; in assay [2], 10%; in assay [4], 101%; in assay [5] it was 25%; in assay [6], 5%; in assay [7], 25%. Further, in assay [3], the inhibition at 1 µM turned out to be 19%.
As to `Cc1ccc2c(c1)c1c(n2-c2cccc(-c3ccc(C)s3)c2)CCN(C)C1` [Compound No. 64, 2,8-dimethyl-5-(3-(5-methylthiophen-2-yl)phenyl)-2,3,4,5-tetrahydro-1H-pyrido[4,3-b]indole], the inhibition at 0.1 µM is -8% in assay [1]; 12% in assay [2]; 102% in assay [4]; 30% in assay [5]; -3% in assay [6]; 31% in assay [7]. Further, the inhibition at 1 µM in assay [3] was determined as 24%.
`Cc1ccc2c(c1)c1c(n2-c2cccc(-c3c(C)noc3C)c2)CCN(C)C1` [Compound No. 65, 4-(3-(2,8-dimethyl-3,4-dihydro-1H-pyrido[4,3-b]indol-5(2H)-yl)phenyl)-3,5-dimethylisoxazole]: the inhibition at 0.1 µM in assay [1] was 1%; in assay [2], 8%; in assay [4], 85%; in assay [5] it was 63%; in assay [6], 38%; in assay [7] it was 46%. In assay [3], the inhibition at 1 µM stood at 29%.
Consider `Cc1ccc2c(c1)c1c(n2-c2cccc(-c3ccnn3C)c2)CCN(C)C1` [Compound No. 66, 2,8-dimethyl-5-(3-(1-methyl-1H-pyrazol-5-yl)phenyl)-2,3,4,5-tetrahydro-1H-pyrido[4,3-b]indole], for which the inhibition at 0.1 µM turned out to be 1% in assay [1]; 8% in assay [2]; 90% in assay [4]; 36% in assay [5]; 30% in assay [6]; 32% in assay [7]. Besides, in assay [3], the inhibition at 1 µM came to 24%.

The term inhibition denotes the change of the read-out against control, counted positive when it falls.
